Results as given in patent US9969686B2, “Synthesis of diindolylmethanes and indolo[3,2-b]carbazoles, compounds formed thereby, and pharmaceutical compositions containing them” (Wisconsin Alumni Research Foundation, priority 2014, dated 2018).
Like-named read-outs stand apart in the source and are kept apart here.

Tests used:
GLP-1 secretion = GLP-1 secretion assay (Table 5; cell line not stated); assay type: cell-based
Method: The GLP-1 secretion assay identifies compounds that stimulate secretion of glucagonlikepeptide one (GLP-1) in mouse and human cell lines derived from gastrointestinal tract tissue. GLP-1 secretion is measured using an ELISA designed to detect the appropriate forms of GLP-1 secreted from these cells. If active in the cell-based GLP-1 assay, molecules can be further tested for selectivity in assays that measure activation of G-protein-coupled receptors (GPCRs) known to stimulate GLP-1 secretion. See, for example, “Glucagon-Like Peptide 1-Based Therapies for Type 2 Diabetes: A Focus on Exenatide,” Kathleen Dungan and John B. Buse; Clinical Diabetes 29 (1), (Winter 2011); and “Glucagon-Like Peptide 1 Secretion by the L-Cell,” Gareth E. Kim and Patricia L. Brubaker; Diabetes: 55 (supplement 2), (December, 2006).
The GLP-1 secretion, diabetes phenotypic testing identifies compounds that stimulate secretion of glucagon-like peptide one (GLP-1) in mouse and human cell lines derived from gastrointestinal tract tissue. GLP-1 secretion is measured using an Eli Lilly & Company (Indianapolis, Ind., USA) proprietary ELISA assay that was specifically designed to detect the appropriate forms of GLP-1 secreted from these cells. (Eli Lilly operates a program known Open Innovation Drug Discovery that performs such testing. See https://openinnovation.lilly.com/dd/.) If active in the cell-based GLP-1 assay, molecules are further tested for selectivity in assays that measure activation of GPCRs known to stimulate GLP-1 secretion. See Glucagon-Like Peptide 1-Based Therapies for Type 2 Diabetes: A Focus on Exenatide; Kathleen Dungan and John B. Buse; Clinical Diabetes: 29 (1), (Winter 2011); and Glucagon-Like Peptide 1 Secretion by the L-Cell; Gareth E. Kim and Patricia L. Brubaker; Diabetes: 55 (supplement 2), (December, 2006).

[1] = tested on: secreted PCSK9 in HepG2 cells; experiment: PCSK9 inhibition assay (AlphaLISA, secreted PCSK9); assay type: cell-based; conditions: Homo sapiens, Table 5
Text: PCSK9 expression is actively regulated at transcription levels. Statins are known to stimulate PCSK9 transcription which in turn curbs the efficacy of statins in LDL lowering in humans. […] The PCSK9 SI phenotypic assay is designed to identify compounds that inhibit synthesis of PCSK9 in human hepatoma cell lines (HepG2). See, for example, Horton, J. D., Cohen, J. C., and Hobbs, H. H., “PCSK9: a convertase that coordinates LDL catabolism,” J. Lipid Res. 50 Suppl, S172-177, (2009); Crunkhorn, S. “Trial watch: PCSK9 antibody reduces LDL cholesterol,” Nat Rev Drug Discov 11, 11, (2012); Vogel, R. A., “PCSK9 inhibition: the next statin,” J Am Coll Cardiol 59, 2354-2355, (2012); Li, H., Dong, B., Park, S. W., Lee, H. S., Chen, W., and Liu, J., “Hepatocyte nuclear factor 1alpha plays a critical role in PCSK9 gene transcription and regulation by the natural hypocholesterolemic compound berberine,” J Biol Chem 284, 28885-28895, (2009); and Cao, A., Wu, M., Li, H., and Liu, J., “Janus Kinase activation by cytokine oncostatin M decreases PCSK9 expression in liver cells,” J Lipid Res 52, 518-530, (2011).
Inhibition of secreted PCSK9 was measured in human hepatocellular carcinoma (HepG2) cells using an “AlphaLISA”®-brand assay. Given that this assay is run in an inhibition mode, the viability of cells was also assessed to rule out compounds whose PCSK9 inhibition resulted from deleterious effects on cell health. Freshly cultured HepG2 cells were harvested from poly-d-lysine-coated T225 cell culture flasks and plated in biocoat poly-d-lysine coated 384 black with clear bottom microtiter plates (BD BioCoat #356663; Becton, Dickinson and Company, Franklin Lakes, N.J., USA) at 20,000 cells/well in 60 ul of growth media (MEM+10% heat inactivated FBS+1% NEAA+1% sodium pyruvate+1% GlutaMAX). Cell plates were incubated overnight at 37° C. and 5% CO2 prior to compound treatment.
Compounds were serially diluted 3-fold in 100% DMSO to achieve a starting final assay plate concentration of 50 uM following a 20-fold dilution in assay media (MEM+5% heat inactivated FBS+1% NEAA+1% sodium pyruvate+1% GlutaMAX) and a 10-fold dilution into the cell plates. While the compounds were diluting, the cell plates were washed twice with 75 ul of assay media and refilled with 45 ul of assay media. The cell plates were incubated for 48 hrs at 37° C. and 5% CO2 prior to running the “AlphaLISA”®-brand assay. The “AlphaLISA”® bead mix was assembled in water and left to incubate 1 hr in the dark prior to use (1× “AlphaLISA”® buffer, 5 mg/ml mAb-PCSK9-A4 conjugated acceptor beads, 3.4 uM bioti-mAb-anti-PCSK9-B9, 5 mg/ml streptavidin-coated donor beads). […] In the dark, 5 ul of the bead mix was added to the ProxiPlates, and then the plates were left to incubate at ambient temperature in the dark overnight before being read on an Envision (excitation 680 nm and emission 615 nm). […] The plates were removed from the incubator, sealed with black tape, and read for propidium iodide stained nuclei using an Acumen-brand cell imaging system (TTP Labtech Ltd., Melbourn, Hertfordshire United Kingdom). Percent inhibitions at all concentrations tested were calculated relative to 0.5% DMSO (min effect), and the effect of 50 uM of a fully efficacious PCSK9 inhibitor for the PCSK9 inhibition assay (max effect), or 50 uM Brefeldin A for the viability assay (max effect). IC50 values were calculated using a 4 parameter logistic curve fitting equation.

IL5 = IL5 assay (Table 5); assay type: cell-based
[2] = tested on: IL-17 secretion from human peripheral blood mononuclear cells (PBMCs); experiment: IL-17 phenotypic assay; assay type: cell-based; conditions: PBMC, Table 5, read-out: IL17, IC50
Text: The IL-17 phenotypic assay seeks to identify inhibitors of IL-17 secretion from human peripheral blood mononuclear cells (PBMCs) following stimulation of memory T cells by IL-23, anti-CD3, and anti-CD28. Compounds of interest will inhibit IL-17. See W. Ouyang, J. K. Kolls, V. Zheng, “The biological functions of T helper 17 cell effector cytokines in inflammation,” Immunity, 28, 454-467 (2008); I. I. Ivanov, L. Zhou, D. R. Littman, “Transcriptional regulation of Th17 cell differentiation,” Semin Immunol, 19, 409-417 (2007); N. Mane I, D. Unutmaz, D. R. Littman, “The differentiation of human T(H)-17 cells requires transforming growth factor-beta and induction of the nuclear receptor RORgammat,” Nat Immunol, 9, 641-649 (2008); and M. Ciofani, A. Madar, C. Galan, M. Sellars, K. Mace, F. Pauli, A. Agarwal, W. Huang, C. N. Parkurst, M. Muratet, K. M. Newberry, S. Meadows, A. Greenfield, V. Vang, P. Jain, F. K. Kirigin, C. Birchmeier, E. F. Wagner, K. M. Murphy, R. M. Myers, R. Bonneau, D. R. Littman, “A validated regulatory network for Th17 cell specification.” Cell, 151, 289-303 (2012).

AhR = AhR (Homo sapiens (Human), UniProt P35869); experiment: ethoxyresorufin-O-deethylase (EROD) assay, AhR activation (CYP1A1 induction); assay type: cell-based; conditions: for increase of signal over DMSO treatment: at 10 nM concentration, data not shown
Method: The human Hep G2 cell line from the Small Molecule Screening and Synthesis Facility (UWCCC, Madison, Wis.) and was maintained in DMEM medium supplemented with 10% FBS. Cells were incubated at 37° C. in a humidified atmosphere supplemented with 5% CO2.
Preparation of cells: Cells were cleaved from T75 flasks with 0.05% trypsin. The cells were then collected by spinning at 1 g for 4 min. Excess media containing trypsin was removed from the pellet, which was then re-suspended in growth media. The cells were then counted using a hemocytometer. Cells were plated in sterile 96-well clear bottom black culture plates at a density of 20,000 cells per well in 0.1 mL of media. The cells were then incubated for 24 h at 37° C. in a humidified atmosphere supplemented with 5% CO2.
The ethoxyresorufin-O-deethylase (EROD) assay was performed on cell cultures of human Hep G2 cells. Briefly, 24 h after plating, cells in 96-well plates were treated with AhR agonists and allowed to incubate for 24 h. Each well was then rinsed with 200 uL of PBS buffer twice. To each well was then added 100 uL of 150 nM solution of 7-ethoxyresurufin and allowed to incubate for 2 h. Fluorescence measurements were obtained with a Safire II micro plate reader with excitation at 520 nm with a 25 nm bandwidth and emission at 595 nm with a 20 nm bandwidth.
The bioactivity of malassezin analogs was then investigated. The well-documented ethoxyresorufin-O-deethylase (EROD) assay was used to determine the EC50 values of the compounds towards AhR activation in HepG2 cells. Donato, M. T.; Gomezlechon, M. J.; Castell, J. V. Anal. Biochem. 1993, 213, 29; van Tonder, J. J., University of Pretoria Z. A., Thesis, 2011. This assay measures the induction of cytochrome P450-1A1 (CYP1A1), which is a major outcome of AhR activation. Whyte, J. J.; Jung, R. E.; Schmitt, C. J.; Tillitt, D. E. Crit. Rev. Toxicol. 2000, 30, 347. CYP1A1 selectively converts 7-ethoxyresorufin to the fluorescent product resorufin.

[3] = in human; cited from earlier work
[4] = EROD assay, HepG2 cells, 24 h treatment, read-out: EC50 (AhR Activity of Diindolylmethanes)

Sequence of AhR (P35869 11-848): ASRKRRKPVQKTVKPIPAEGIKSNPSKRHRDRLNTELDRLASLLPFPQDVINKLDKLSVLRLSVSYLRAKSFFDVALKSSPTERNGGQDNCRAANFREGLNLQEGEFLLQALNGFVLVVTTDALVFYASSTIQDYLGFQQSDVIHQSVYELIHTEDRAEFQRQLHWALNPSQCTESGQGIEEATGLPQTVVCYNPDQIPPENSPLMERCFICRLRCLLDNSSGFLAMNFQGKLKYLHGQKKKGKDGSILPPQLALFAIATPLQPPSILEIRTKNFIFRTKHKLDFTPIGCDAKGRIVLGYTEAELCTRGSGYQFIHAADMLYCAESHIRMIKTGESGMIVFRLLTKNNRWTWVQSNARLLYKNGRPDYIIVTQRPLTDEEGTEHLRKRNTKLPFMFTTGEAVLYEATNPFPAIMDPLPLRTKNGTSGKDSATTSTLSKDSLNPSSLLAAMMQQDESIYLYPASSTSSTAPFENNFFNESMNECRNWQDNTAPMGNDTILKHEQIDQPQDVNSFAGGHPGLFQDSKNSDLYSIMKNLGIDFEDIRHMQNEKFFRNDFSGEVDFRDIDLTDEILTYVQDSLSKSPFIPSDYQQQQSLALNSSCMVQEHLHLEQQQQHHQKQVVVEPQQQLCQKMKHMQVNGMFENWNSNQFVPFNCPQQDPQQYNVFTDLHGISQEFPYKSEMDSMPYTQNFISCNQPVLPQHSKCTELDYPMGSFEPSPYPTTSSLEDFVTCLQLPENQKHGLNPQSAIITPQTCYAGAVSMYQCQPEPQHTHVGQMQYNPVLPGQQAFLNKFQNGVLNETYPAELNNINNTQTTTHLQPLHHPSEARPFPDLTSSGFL

EC50 (GLP-1 secretion) [µM]	EC50 (AhR; [4]) [µM]	Compound	further results
2.6	–	Cc1ccc(S(=O)(=O)n2c(Cc3c[nH]c4cccc(C)c34)c(C)c3ccccc32)cc1	–
7.3	–	Cc1ccc(S(=O)(=O)n2c(COC(C)C)c(C)c3ccccc32)cc1	–
–	–	Cc1ccc(S(=O)(=O)n2c(Cc3cn(C)c4ccccc34)c(C(C)C)c3ccccc32)cc1	IC50 [1]: 1.1 µM
–	–	Cc1ccc(S(=O)(=O)n2c(Cc3[nH]c4ccccc4c3CC#N)c(C)c3ccccc32)cc1	IC50 (IL5): > 30 µM; IC50 [2]: 3.1 µM
2.9	–	COc1ccc(Cc2c(C)c3ccccc3n2S(=O)(=O)c2ccc(C)cc2)c(OC)c1	IC50 [1]: 1.1 µM
–	0.215 ± 0.46	c1ccc2[nH]c(Cc3c[nH]c4ccccc34)cc2c1 [6′, 3-((1H-indol-2-yl)methyl)-1H-indole]	–
–	0.27 ± 0.1	O=Cc1c(Cc2c[nH]c3ccccc23)[nH]c2ccccc12 [Compound 6, 2-((1H-indol-3-yl)methyl)-1H-indole-3-carbaldehyde, reference compound]	–
–	0.094 ± 0.27	COc1ccc2[nH]cc(Cc3cc4ccccc4[nH]3)c2c1 [Compound 10c]	–
–	0.086 ± 0.04	Cn1cc(Cc2cc3ccccc3[nH]2)c2ccccc21 [Compound 10d]	–
–	0.093 ± 0.15	O=Cc1c(Cc2c[nH]c3ccc(Cl)cc23)[nH]c2ccccc12 [Compound 11a]	increase of signal over DMSO treatment (AhR): 5 fold
–	0.32 ± 0.1	O=Cc1c(Cc2c[nH]c3c(Cl)cccc23)[nH]c2ccccc12 [Compound 11b]	–
–	0.23 ± 0.1	COc1ccc2[nH]cc(Cc3[nH]c4ccccc4c3C=O)c2c1 [Compound 11c]	–
–	0.055 ± 0.03	Cn1cc(Cc2[nH]c3ccccc3c2C=O)c2ccccc21 [Compound 11d]	EC50 value relative to that of malassezin (AhR; EROD assay, HepG2 cells): about five; increase of signal over DMSO treatment (AhR): 6 fold
14.8	–	Clc1ccc2[nH]cc(Cc3cc4ccccc4[nH]3)c2c1 [Compound 2351377819]	IC50 [1]: 10 µM
7.2	–	Clc1cccc2c(Cc3cc4ccccc4[nH]3)c[nH]c12 [Compound 2351377820]	IC50 [1]: 2.8 µM
6.8	–	Brc1ccc2[nH]cc(Cc3cc4ccccc4[nH]3)c2c1 [Compound 2351377823]	–
–	–	Cn1cc(Cc2cc3ccccc3[nH]2)c2ccccc21 [Compound 2351377824]	IC50 [1]: 17.9 µM; EC50 (AhR; Table 5, read-out: AhR, EC50): 0.09 µM
–	–	Clc1cc2c(cc1Cl)Oc1cc(Cl)c(Cl)cc1O2 [dioxin, 2,3,7,8-tetrachlorodibenzo-p-dioxin]	half-life (metabolic stability) [3]: 7-10 years
